Holding throughout (assay): Kinase assay, binding constants (Kd), kinase-tagged T7 phage, qPCR
(Real-time PCR tracks product formation cycle by cycle.)

Test [1] deals with FGFR2 (Homo sapiens (Human), UniProt P21802). On the procedure:
(§1) Kinase-tagged T7 phage strains were prepared in an E. coli host derived from the BL21 strain. E. coli were grown to log-phase and infected with T7 phage and incubated with shaking at 32° C. until lysis. The lysates were centrifuged and filtered to remove cell debris. Streptavidin-coated magnetic beads were treated with biotinylated small molecule ligands for 30 minutes at room temperature to generate affinity resins for kinase assays. The liganded beads were blocked with excess biotin and washed with blocking buffer SeaBlock (Pierce), […], 1 mM DTT to remove unbound ligand and to reduce non-specific binding.
(§2) Test compounds were prepared as 111λ stocks in 10000 DMS0. Kds were determined using an 11-point 3-fold compound dilution series with three DMSO control points. […] The compounds were then diluted directly into the assays such that the final concentration of DMSO was 0.9%. All reactions performed in polypropylene 384-well plate. Each was a final volume of 0.02 ml. […] The beads were then re-suspended in elution buffer (1×PBS, 0.05% Tween […] non-biotinylated affinity ligand) and incubated at room temperature with shaking for 30 minutes. The kinase concentration in the eluates was measured by qPCR.
(§3) Binding constants were calculated with a standard dose-response curve using the Hill equation: […]
(§4) The Hill Slope was set to −1. Curves were fitted using a non-linear least square fit with the Levenberg-Marquardt algorithm.

Test [2] has as its target FGFR3 (V555M) (Homo sapiens (Human), UniProt P22607, V555M). As to conditions: V555M mutant. How it is done:
as §1, §2, §3, §4

The target of test [3] is FGFR1 (Homo sapiens (Human), UniProt P11362). On the procedure: as §1, §2, §3, §4
FGFR1, sequence (P11362 22-822): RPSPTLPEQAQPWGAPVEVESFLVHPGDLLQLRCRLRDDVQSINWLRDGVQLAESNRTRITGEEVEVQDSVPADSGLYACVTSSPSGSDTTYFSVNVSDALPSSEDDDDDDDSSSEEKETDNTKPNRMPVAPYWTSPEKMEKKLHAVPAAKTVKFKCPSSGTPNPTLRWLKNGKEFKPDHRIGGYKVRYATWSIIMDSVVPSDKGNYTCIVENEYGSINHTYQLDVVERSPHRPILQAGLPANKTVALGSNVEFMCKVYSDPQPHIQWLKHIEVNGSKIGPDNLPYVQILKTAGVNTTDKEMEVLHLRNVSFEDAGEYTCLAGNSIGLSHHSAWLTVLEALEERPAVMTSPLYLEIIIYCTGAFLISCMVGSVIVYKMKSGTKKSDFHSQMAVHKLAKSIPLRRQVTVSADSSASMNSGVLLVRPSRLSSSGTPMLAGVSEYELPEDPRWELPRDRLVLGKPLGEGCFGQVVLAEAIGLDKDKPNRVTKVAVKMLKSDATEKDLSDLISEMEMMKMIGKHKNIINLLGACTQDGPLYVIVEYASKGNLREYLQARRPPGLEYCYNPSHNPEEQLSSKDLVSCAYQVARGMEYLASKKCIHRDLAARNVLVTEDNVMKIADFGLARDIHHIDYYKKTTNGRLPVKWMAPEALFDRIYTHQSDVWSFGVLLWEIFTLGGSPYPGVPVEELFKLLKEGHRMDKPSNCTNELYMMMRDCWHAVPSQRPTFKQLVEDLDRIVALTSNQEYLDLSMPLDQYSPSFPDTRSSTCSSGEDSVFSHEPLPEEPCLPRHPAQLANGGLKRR
Test [4] deals with FGFR4 (Homo sapiens (Human), UniProt P22455). On the procedure:
as §1, §2, §3, §4

For test [5], the target named is FGFR3 (Homo sapiens (Human), UniProt P22607). How it is done:
as §1, §2, §3, §4

Where only a bound is given, the exact number is not on record here.

The Kd is a measure of binding affinity in units of concentration. Read a low Kd as tighter binding.

FGFR4, sequence (P22455 22-802): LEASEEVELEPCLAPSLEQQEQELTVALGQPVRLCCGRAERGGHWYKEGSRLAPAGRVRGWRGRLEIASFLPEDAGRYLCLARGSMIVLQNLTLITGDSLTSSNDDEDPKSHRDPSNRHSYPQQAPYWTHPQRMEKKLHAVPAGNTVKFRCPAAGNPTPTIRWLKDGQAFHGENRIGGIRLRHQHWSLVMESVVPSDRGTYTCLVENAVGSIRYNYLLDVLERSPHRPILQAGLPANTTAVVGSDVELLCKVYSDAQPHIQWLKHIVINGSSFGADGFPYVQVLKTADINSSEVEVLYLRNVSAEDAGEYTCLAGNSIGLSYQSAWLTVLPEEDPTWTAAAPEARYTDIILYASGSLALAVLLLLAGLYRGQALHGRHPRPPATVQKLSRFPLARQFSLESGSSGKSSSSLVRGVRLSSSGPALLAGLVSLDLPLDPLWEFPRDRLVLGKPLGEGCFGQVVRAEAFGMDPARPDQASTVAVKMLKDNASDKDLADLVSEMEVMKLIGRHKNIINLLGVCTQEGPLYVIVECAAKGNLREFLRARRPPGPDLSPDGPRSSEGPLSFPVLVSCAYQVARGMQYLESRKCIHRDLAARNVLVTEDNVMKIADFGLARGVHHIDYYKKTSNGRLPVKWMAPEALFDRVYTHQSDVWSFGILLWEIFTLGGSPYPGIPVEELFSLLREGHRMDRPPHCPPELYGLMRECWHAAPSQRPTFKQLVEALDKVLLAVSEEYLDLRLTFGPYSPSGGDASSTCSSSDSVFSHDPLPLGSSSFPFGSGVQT
FGFR2, sequence (P21802 22-821): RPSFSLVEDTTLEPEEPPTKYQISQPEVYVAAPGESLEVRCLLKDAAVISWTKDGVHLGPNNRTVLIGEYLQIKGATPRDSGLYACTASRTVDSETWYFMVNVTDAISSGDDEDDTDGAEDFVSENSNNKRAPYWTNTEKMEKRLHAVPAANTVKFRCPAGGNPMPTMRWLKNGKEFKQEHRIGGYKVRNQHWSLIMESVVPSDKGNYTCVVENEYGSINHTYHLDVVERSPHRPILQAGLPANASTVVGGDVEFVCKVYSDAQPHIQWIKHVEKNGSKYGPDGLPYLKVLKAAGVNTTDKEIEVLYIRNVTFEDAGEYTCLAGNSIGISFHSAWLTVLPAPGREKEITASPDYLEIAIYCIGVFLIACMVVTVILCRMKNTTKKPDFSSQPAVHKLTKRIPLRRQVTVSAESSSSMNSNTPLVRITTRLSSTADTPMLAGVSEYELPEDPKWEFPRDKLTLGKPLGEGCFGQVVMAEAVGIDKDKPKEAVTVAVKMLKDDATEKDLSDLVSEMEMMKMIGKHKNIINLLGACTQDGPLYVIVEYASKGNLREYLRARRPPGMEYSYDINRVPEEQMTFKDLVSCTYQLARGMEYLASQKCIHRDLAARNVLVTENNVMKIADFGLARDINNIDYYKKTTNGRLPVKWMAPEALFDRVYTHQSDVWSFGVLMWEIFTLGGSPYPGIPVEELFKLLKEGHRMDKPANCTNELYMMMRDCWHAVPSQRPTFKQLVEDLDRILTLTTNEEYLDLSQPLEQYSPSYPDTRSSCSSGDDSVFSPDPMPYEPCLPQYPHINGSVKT
FGFR3 (V555M), sequence (P22607 23-806 V555M): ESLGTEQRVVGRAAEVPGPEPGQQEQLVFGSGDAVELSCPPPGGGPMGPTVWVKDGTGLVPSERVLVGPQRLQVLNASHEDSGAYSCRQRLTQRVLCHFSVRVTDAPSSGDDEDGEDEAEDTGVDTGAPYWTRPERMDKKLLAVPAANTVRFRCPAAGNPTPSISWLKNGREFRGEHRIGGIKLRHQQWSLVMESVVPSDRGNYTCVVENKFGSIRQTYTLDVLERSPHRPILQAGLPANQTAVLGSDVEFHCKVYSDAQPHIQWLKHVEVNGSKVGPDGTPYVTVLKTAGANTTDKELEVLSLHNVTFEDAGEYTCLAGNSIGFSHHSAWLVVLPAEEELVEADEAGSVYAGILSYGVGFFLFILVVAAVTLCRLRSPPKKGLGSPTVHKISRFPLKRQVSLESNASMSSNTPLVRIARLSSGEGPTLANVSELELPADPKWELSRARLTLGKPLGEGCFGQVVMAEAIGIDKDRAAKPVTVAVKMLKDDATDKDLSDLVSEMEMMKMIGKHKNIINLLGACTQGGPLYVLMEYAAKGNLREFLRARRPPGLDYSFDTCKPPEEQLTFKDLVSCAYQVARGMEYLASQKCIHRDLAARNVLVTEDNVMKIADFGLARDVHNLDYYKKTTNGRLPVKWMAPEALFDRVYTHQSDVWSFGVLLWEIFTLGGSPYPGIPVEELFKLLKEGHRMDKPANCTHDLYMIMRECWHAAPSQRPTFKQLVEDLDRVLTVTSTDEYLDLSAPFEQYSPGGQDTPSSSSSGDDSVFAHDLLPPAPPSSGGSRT
FGFR3, sequence (P22607 23-806): as the sequence (P22607 23-806 V555M) above, with M533V counted along it

Take `C[C@@H](Oc1ccc2[nH]nc(-c3cnn(C4CCN(C5CCC5)CC4)c3)c2c1)c1cc(F)cc(F)c1` [Example 167, 3-[1-(1-cyclobutyl-4-piperidyl)pyrazol-4-yl]-5-[(1R)-1-(3,5-difluorophenyl)ethoxy]-1H-indazole]: the Kd was 20 to 100 nM in test [1]; 1 to 20 nM in test [2]; 20 to 100 nM in test [3]; more than 300 nM in test [4]; 20 to 100 nM in test [5].
On to `C[C@@H](Oc1ccc2[nH]nc(-c3ccc(N4CC5(CNC5)C4)nc3)c2c1)c1cc(F)cc(F)c1` [Example 169, 3-[6-(2,6-diazaspiro[3.3]heptan-2-yl)-3-pyridyl]-5-[(1R)-1-(3,5-difluorophenyl)ethoxy]-1H-indazole], for which the Kd was 20 to 100 nM in test [1]; 1 to 20 nM in test [2]; 20 to 100 nM in test [3]; 20 to 100 nM in test [4]; 1 to 20 nM in test [5].
Take `C[C@@H](Oc1ccc2[nH]nc(-c3cnn(C4CCS(=O)(=O)CC4)c3)c2c1)c1cc(F)cc(F)c1` [Example 171, 4-[4-[5-[(1R)-1-(3,5-difluorophenyl)ethoxy]-1H-indazol-3-yl]pyrazol-1-yl]thiane 1,1-dioxide]: the Kd in test [1] is 20 to 100 nM; in test [2], 1 to 20 nM; in test [3], 100 to 300 nM; in test [4] it was more than 300 nM; in test [5], 20 to 100 nM.
Turning to `C[C@@H](Oc1ccc2[nH]nc(-c3ccc(N4CC5(C4)CN(S(C)(=O)=O)C5)nc3)c2c1)c1cc(F)cc(F)c1` [Example 172, 5-[(1R)-1-(3,5-difluorophenyl)ethoxy]-3-[6-(2-methylsulfonyl-2,6-diazaspiro[3.3]heptan-6-yl)-3-pyridyl]-1H-indazole], the Kd lay within 20 to 100 nM in test [1]; 1 to 20 nM in test [2]; 100 to 300 nM in test [3]; 20 to 100 nM in test [4]; 1 to 20 nM in test [5].
In the case of `Cc1cnnc(C)c1[C@@H](C)Oc1ccc2[nH]nc(-c3ccc(N4CCN5CCC[C@H]5C4)nc3)c2c1` [Example 174, 3-[6-[(8aS)-3,4,6,7,8,8a-hexahydro-1H-pyrrolo[1,2-a]pyrazin-2-yl]-3-pyridyl]-5-[(1R)-1-(3,5-dimethylpyridazin-4-yl)ethoxy]-1H-indazole], the dissociation constant Kd in test [1], in test [2], in test [3], in test [4] and in test [5] was 1 to 20 nM throughout.
With `Cc1cnnc(C)c1[C@@H](C)Oc1ccc2[nH]nc(-c3ccc(N4CCN5CCC[C@@H]5C4)nc3)c2c1` [Example 175, 3-[6-[(8aR)-3,4,6,7,8,8a-hexahydro-1H-pyrrolo[1,2-a]pyrazin-2-yl]-3-pyridyl]-5-[(1R)-1-(3,5-dimethylpyridazin-4-yl)ethoxy]-1H-indazole], the Kd in test [1], in test [2], in test [3], in test [4] and in test [5] was 1 to 20 nM throughout.
Regarding `Cc1cnnc(C)c1[C@@H](C)Oc1ccc2[nH]nc(-c3ccc(N4CCN5C[C@H](O)C[C@H]5C4)nc3)c2c1` [Example 176, (7R,8aS)-2-[5-[5-[(1R)-1-(3,5-dimethylpyridazin-4-yl)ethoxy]-1H-indazol-3-yl]-2-pyridyl]-3,4,6,7,8,8a-hexahydro-1H-pyrrolo[1,2-a]pyrazin-7-ol], the Kd in test [1], in test [2], in test [3], in test [4] and in test [5] was 1 to 20 nM throughout.
For `Cc1ncc(Cl)c([C@@H](C)Oc2ccc3[nH]nc(-c4ccc(N5CC6(CNC6)C5)nc4)c3c2)c1Cl` [Example 177, 3-[6-(2,6-diazaspiro[3.3]heptan-2-yl)-3-pyridyl]-5-[(1R)-1-(3,5-dichloro-2-methyl-4-pyridyl)ethoxy]-1H-indazole], the Kd in test [1] lay in the range of 20 to 100 nM; in test [2], 1 to 20 nM; in test [3] it was 1 to 20 nM; in test [4] it was 1 to 20 nM; in test [5], 1 to 20 nM.
`C[C@@H](Oc1ccc2[nH]nc(-c3ccc(N4CCN5C[C@H](O)C[C@H]5C4)nc3)c2c1)c1c(Cl)cncc1Cl` [Example 178, (7R,8aS)-2-[5-[5-[(1R)-1-(3,5-dichloro-4-pyridyl)ethoxy]-1H-indazol-3-yl]-2-pyridyl]-3,4,6,7,8,8a-hexahydro-1H-pyrrolo[1,2-a]pyrazin-7-ol]: the Kd in test [1], in test [2], in test [3], in test [4] and in test [5] was 1 to 20 nM throughout.
Turning to `Cc1ncc(Cl)c([C@@H](C)Oc2ccc3[nH]nc(-c4cnc(N5CC6(CNC6)C5)nc4)c3c2)c1Cl` [Example 179, 3-[2-(2,6-diazaspiro[3.3]heptan-2-yl)pyrimidin-5-yl]-5-[(1R)-1-(3,5-dichloro-2-methyl-4-pyridyl)ethoxy]-1H-indazole], the Kd in test [1] was 20 to 100 nM; in test [2], 1 to 20 nM; in test [3] it was 20 to 100 nM; in test [4] it was 1 to 20 nM; in test [5], 1 to 20 nM.
Consider `CCS(=O)(=O)N1CC2(CN(c3ccc(-c4n[nH]c5ccc(O[C@H](C)c6c(Cl)cnc(C)c6Cl)cc45)cn3)C2)C1` [Example 180, 5-[(1R)-1-(3,5-dichloro-2-methyl-4-pyridyl)ethoxy]-3-[6-(2-ethylsulfonyl-2,6-diazaspiro[3.3]heptan-6-yl)-3-pyridyl]-1H-indazole], for which the Kd in test [1] lay in the range of 20 to 100 nM; in test [2], 1 to 20 nM; in test [3] it was 20 to 100 nM; in test [4], 20 to 100 nM; in test [5], 1 to 20 nM.
As to `CCS(=O)(=O)N1CC2(CN(c3ncc(-c4n[nH]c5ccc(O[C@H](C)c6c(Cl)cnc(C)c6Cl)cc45)cn3)C2)C1` [Example 181, 5-[(1R)-1-(3,5-dichloro-2-methyl-4-pyridyl)ethoxy]-3-[2-(2-ethylsulfonyl-2,6-diazaspiro[3.3]heptan-6-yl)pyrimidin-5-yl]-1H-indazole], the Kd in test [1] was more than 300 nM; in test [2] it was 1 to 20 nM; in test [3], 100 to 300 nM; in test [4], 1 to 20 nM; in test [5], 1 to 20 nM.
With `CCOC(=O)N1CCCC2(C1)CN(c1ccc(-c3n[nH]c4ccc(O[C@H](C)c5c(C)cnnc5C)cc34)cn1)C2` [Example 182, ethyl 2-[5-[5-[(1R)-1-(3,5-dimethylpyridazin-4-yl)ethoxy]-1H-indazol-3-yl]-2-pyridyl]-2,8-diazaspiro[3.5]nonane-8-carboxylate], the dissociation constant (Kd) in test [1] was 1 to 20 nM; in test [2], 1 to 20 nM; in test [3] it was 20 to 100 nM; in test [4], 1 to 20 nM; in test [5], 1 to 20 nM.
Turning to `C[C@@H](Oc1ccc2[nH]nc(-c3ccc(N4CCN5CCC[C@H]5C4)nc3)c2c1)c1c(Cl)cncc1Cl` [Example 183, 3-[6-[(8aS)-3,4,6,7,8,8a-hexahydro-1H-pyrrolo[1,2-a]pyrazin-2-yl]-3-pyridyl]-5-[(1R)-1-(3,5-dichloro-4-pyridyl)ethoxy]-1H-indazole], the dissociation constant (Kd) in test [1], in test [2], in test [3], in test [4] and in test [5] was 1 to 20 nM in each case.
Turning to `C[C@@H](Oc1ccc2[nH]nc(-c3ccc(N4CCN5CCC[C@@H]5C4)nc3)c2c1)c1c(Cl)cncc1Cl` [Example 184, 3-[6-[(8aR)-3,4,6,7,8,8a-hexahydro-1H-pyrrolo[1,2-a]pyrazin-2-yl]-3-pyridyl]-5-[(1R)-1-(3,5-dichloro-4-pyridyl)ethoxy]-1H-indazole], the Kd in test [1], in test [2], in test [3], in test [4] and in test [5] was 1 to 20 nM throughout.
For `CCOC(=O)N1CC2(C1)CN(c1ncc(-c3n[nH]c4ccc(O[C@H](C)c5c(Cl)cnc(C)c5Cl)cc34)cn1)C2` [Example 185, ethyl 6-[5-[5-[(1R)-1-(3,5-dichloro-2-methyl-4-pyridyl)ethoxy]-1H-indazol-3-yl]pyrimidin-2-yl]-2,6-diazaspiro[3.3]heptane-2-carboxylate], the Kd in test [1] is 100 to 300 nM; in test [2] it was 1 to 20 nM; in test [3], more than 300 nM; in test [4], 1 to 20 nM; in test [5], 20 to 100 nM.
`CCS(=O)(=O)N1CCCC2(CN(c3ccc(-c4n[nH]c5ccc(O[C@H](C)c6c(C)cnnc6C)cc45)cn3)C2)C1` [Example 186, 5-[(1R)-1-(3,5-dimethylpyridazin-4-yl)ethoxy]-3-[6-(8-ethylsulfonyl-2,8-diazaspiro[3.5]nonan-2-yl)-3-pyridyl]-1H-indazole]: the dissociation constant Kd fell in the range of 20 to 100 nM in test [1]; 1 to 20 nM in test [2]; 100 to 300 nM in test [3]; 20 to 100 nM in test [4]; 1 to 20 nM in test [5].

Source of the values: patent US20240109865A1, “INDAZOLE COMPOUNDS AS KINASE INHIBITORS” (TYRA BIOSCIENCES, INC., priority 2020, published 2024).
